Measurements published in patent US20240018161A1, “MODULATORS OF CYSTIC FIBROSIS TRANSMEMBRANE CONDUCTANCE REGULATOR” (VERTEX PHARMACEUTICALS INCORPORATED, priority 2020, published 2024).
Like-named read-outs stand apart in the source and are kept apart here.

Biological target: CFTR-mediated chloride transport in human intestinal epithelial enteroid cells (Homo sapiens, UniProt P13569)
Test: Membrane potential dye, Enteroid Assay A
Assay type: cell-based
Conditions: for EC50: read-out: Ent. A EC50
Description: Base medium (ADF+++) consisted of Advanced DMEM/Ham's F12, 2 mM Glutamax, 10 mM HEPES, […] penicillin/streptomycin.
Bath 1 Buffer consisted of 1 mM MgCl2, 160 mM NaCl, 4.5 mM KCl, 10 mM HEPES, 10 mM Glucose, 2 mM CaCl2.
Chloride Free Buffer consisted of 1 mM Magnesium Gluconate, 2 mM Calcium Gluconate, 4.5 mM Potassium Gluconate, 160 mM Sodium Gluconate, 10 mM HEPES, 10 mM Glucose.
Bath1 Dye Solution consisted of Bath 1 Buffer, 0.04% Pluronic F127, 20 μM Methyl Oxonol, 30 μM CaCCinh-A01, 30 μM Chicago Sky Blue.
Chloride Free Dye Solution consisted of Chloride Free Buffer, 0.04% Pluronic F127, 20 μM Methyl Oxonol, 30 μM CaCCinh-A01, 30 μM Chicago Sky Blue.
3. Enteroid Cell Harvesting and Seeding
Cells were recovered in cell recovery solution, collected by centrifugation at 650 rpm for 5 min at 4° C., resuspended in TryPLE and incubated for 5 min at 37° C. Cells were then collected by centrifugation at 650 rpm for 5 min at 4° C. and resuspended in IEMM containing 10 μM ROCK inhibitor (RI).
4. Membrane Potential Dye, Enteroid Assay A
Briefly, cells were washed 5 times in Bath 1 Buffer. Bath 1 Dye Solution was added, and the cells were incubated for 25 min at room temperature. Following dye incubation, cells were washed 3 times in Chloride Free Dye Solution. Chloride transport was initiated by addition of Chloride Free Dye Stimulation Solution and the fluorescence signal was read for 15 min. […] Chloride transport was then expressed as a percentage of the chloride transport following treatment with 3 μM N-[(6-amino-2-pyridyl)sulfonyl]-6-(3-fluoro-5-isobutoxy-phenyl)-2-[(4S)-2,2,4-trimethylpyrrolidin-1-yl]pyridine-3-carboxamide, 3 μM (R)-1-(2,2-difluorobenzo[d][1,3]dioxol-5-yl)-N-(1-(2,3-dihydroxypropyl)-6-fluoro-2-(1-hydroxy-2-methylpropan-2-yl)-1H-indol-5-yl)cyclopropanecarboxamide and 300 nM acute N-[2,4-bis(1,1-dimethylethyl)-5-hydroxyphenyl]-1,4-dihydro-4-oxoquinoline-3-carboxamide triple combination control (% Activity).

[1] = percentage of chloride transport of triple combination control (3 μM N-[(6-amino-2-pyridyl)sulfonyl]-6-(3-fluoro-5-isobutoxy-phenyl)-2-[(4S)-2,2,4-trimethylpyrrolidin-1-yl]pyridine-3-carboxamide based)

Sequence of CFTR-mediated chloride transport in human intestinal epithelial enteroid cells (P13569 with tags, fused parts or gaps DEL508-508): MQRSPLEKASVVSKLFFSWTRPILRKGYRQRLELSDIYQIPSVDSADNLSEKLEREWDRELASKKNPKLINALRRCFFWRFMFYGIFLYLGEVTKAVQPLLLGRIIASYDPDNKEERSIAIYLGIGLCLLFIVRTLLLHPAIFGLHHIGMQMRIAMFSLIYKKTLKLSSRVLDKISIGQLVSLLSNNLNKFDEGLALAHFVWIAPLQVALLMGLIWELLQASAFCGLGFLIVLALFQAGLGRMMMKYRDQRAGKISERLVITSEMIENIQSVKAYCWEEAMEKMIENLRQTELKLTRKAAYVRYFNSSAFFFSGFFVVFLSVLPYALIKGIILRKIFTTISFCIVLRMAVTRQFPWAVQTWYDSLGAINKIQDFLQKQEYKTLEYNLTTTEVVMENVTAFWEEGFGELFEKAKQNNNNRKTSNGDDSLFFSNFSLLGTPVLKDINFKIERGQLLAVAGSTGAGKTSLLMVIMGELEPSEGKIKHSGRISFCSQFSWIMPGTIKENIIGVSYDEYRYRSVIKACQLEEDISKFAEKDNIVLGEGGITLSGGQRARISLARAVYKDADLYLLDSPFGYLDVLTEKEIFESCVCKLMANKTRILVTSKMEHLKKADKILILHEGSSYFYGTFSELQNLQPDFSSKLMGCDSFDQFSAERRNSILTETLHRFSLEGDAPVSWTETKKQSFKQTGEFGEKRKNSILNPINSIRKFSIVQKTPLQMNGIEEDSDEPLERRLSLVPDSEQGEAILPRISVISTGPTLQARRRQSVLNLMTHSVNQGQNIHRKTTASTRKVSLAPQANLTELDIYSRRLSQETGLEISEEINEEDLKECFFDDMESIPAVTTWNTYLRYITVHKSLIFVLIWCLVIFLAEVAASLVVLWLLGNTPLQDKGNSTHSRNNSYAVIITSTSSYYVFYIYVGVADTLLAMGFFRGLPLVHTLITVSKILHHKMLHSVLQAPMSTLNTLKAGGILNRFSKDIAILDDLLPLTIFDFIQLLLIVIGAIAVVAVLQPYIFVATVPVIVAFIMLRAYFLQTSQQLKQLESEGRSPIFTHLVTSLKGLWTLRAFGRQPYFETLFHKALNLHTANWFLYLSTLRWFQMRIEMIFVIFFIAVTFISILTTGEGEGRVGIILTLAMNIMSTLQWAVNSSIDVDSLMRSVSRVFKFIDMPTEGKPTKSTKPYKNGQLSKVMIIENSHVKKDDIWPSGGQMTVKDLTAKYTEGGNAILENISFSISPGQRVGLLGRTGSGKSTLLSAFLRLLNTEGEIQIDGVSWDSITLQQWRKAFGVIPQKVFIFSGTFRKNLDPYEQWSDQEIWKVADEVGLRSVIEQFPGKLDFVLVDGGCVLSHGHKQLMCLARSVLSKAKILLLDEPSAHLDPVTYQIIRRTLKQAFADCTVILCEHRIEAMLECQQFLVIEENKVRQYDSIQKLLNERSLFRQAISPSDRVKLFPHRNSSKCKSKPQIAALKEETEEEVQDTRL

Row | Compound | Ent. A Max Activity (%) (Enteroid Assay A) | EC50 (Enteroid Assay A) | Ent. A Max Activity (%) [1] | EC50 (enteroid cells incubated with test compound 18-24 hours, acute 10 μM forskolin and 300 nM N-[2,4-bis(1,1-dimethylethyl)-5-hydroxyphenyl]-1,4-dihydro-4-oxoquinoline-3-carboxamide)
1 | Cc1cccc(C)c1-c1cc2nc(n1)NS(=O)(=O)c1cccc(c1)C(=O)N1CCN(C3CCC3(C)C)C[C@H](C1)O2 (single isomer, unassigned) [Compound 9] | +++ (+++ is >600%) | < 1000 nM |  | 
2 | Cc1cccc(C)c1-c1cc2nc(n1)NS(=O)(=O)c1cccc(c1)C(=O)N1CCN(C3CCC3(C)C)C[C@H](C1)O2 (single isomer, unassigned) [Compound 10] | +++ (+++ is >600%) | < 1000 nM |  | 
3 | Cc1cccc(C)c1-c1cc2nc(n1)NS(=O)(=O)c1cccc(c1)C(=O)N1CCN(C3CCC(C)(C)C3)C[C@H](C1)O2 (single isomer, unassigned) [Compound 36] | +++ (+++ is >600%) | < 1000 nM |  | 
4 | Cc1cccc(C)c1-c1cc2nc(n1)NS(=O)(=O)c1cccc(c1)C(=O)N1CCN(C3CCC(C)(C)C3)C[C@H](C1)O2 (single isomer, unassigned) [Compound 37] | +++ (+++ is >600%) | < 1000 nM |  | 
5 | Cc1cccc(C)c1-c1cc2nc(n1)NS(=O)(=O)c1cccc(c1)C(=O)N1CCN([C@H]3CC[C@@H](F)CC3)C[C@H](C1)O2 (single isomer, unassigned) [Compound 38] | +++ (+++ is >600%) | < 1000 nM |  | 
6 | Cc1cccc(C)c1-c1cc2nc(n1)NS(=O)(=O)c1cccc(c1)C(=O)N1CCN([C@H]3CC[C@@H](F)CC3)C[C@H](C1)O2 (single isomer, unassigned) [Compound 39] | +++ (+++ is >600%) | 1000 to 3000 nM |  | 
7 | Cc1cccc(C)c1-c1cc2nc(n1)NS(=O)(=O)c1cccc(c1)C(=O)N1CCN(CCC3(C(F)(F)F)CC3)CC(C1)O2 (single isomer, unassigned) [Compound 69, 12-(2,6-Dimethylphenyl)-18-{2-[1-(trifluoromethyl)cyclopropyl]ethyl}-15-oxa-8λ^6-thia-1,9,11,18,22-pentaazatetracyclo[14.4.1.13,7.110,14]tricosa-3(23),4,6,10(22),11,13-hexaene-2,8,8-trione] | +++ (+++ is >600%) | < 1000 nM |  | 
8 | Cc1cccc(C)c1-c1cc2nc(n1)NS(=O)(=O)c1cccc(c1)C(=O)N1CCN([C@@H](C)C(C)(C)C)C[C@H](C1)O2 (single isomer, unassigned) [Compound 72] | +++ (+++ is >600%) | < 1000 nM |  | 
9 | Cc1cccc(C)c1-c1cc2nc(n1)NS(=O)(=O)c1cccc(c1)C(=O)N1CCN([C@@H](C)C(C)(C)C)C[C@H](C1)O2 (single isomer, unassigned) [Compound 73] | +++ (+++ is >600%) | < 1000 nM |  | 
10 | Cc1cccc(C)c1-c1cc2nc(n1)NS(=O)(=O)c1cccc(c1)C(=O)N1CCN(Cc3ccccc3)C[C@H](O2)[C@@H]1CC(C)C (single isomer, unassigned) [Compound 87] | ++ (++ is 30-60%) | < 1000 nM |  | 
11 | Cc1cccc(C)c1-c1cc2nc(n1)NS(=O)(=O)c1cccc(c1)C(=O)N1CCN(Cc3ccccc3)CC(O2)C1CC(C)C (single isomer, unassigned) [Compound 88, 18-Benzyl-12-(2,6-dimethylphenyl)-21-(2-methylpropyl)-15-oxa-8λ^6-thia-1,9,11,18,22-pentaazatetracyclo[14.4.1.13,7.110,14]tricosa-3(23),4,6,10(22),11,13-hexaene-2,8,8-trione] | ++ (++ is 30-60%) | < 1000 nM |  | 
12 | Cc1cccc(C)c1-c1cc2nc(n1)NS(=O)(=O)c1cccc(c1)C(=O)N1CCN(Cc3ccccc3)CC(O2)C1CC(C)C (single isomer, unassigned) [Compound 89, 18-benzyl-12-(2,6-dimethylphenyl)-21-(2-methylpropyl)-15-oxa-8λ^6-thia-1,9,11,18,22-pentaazatetracyclo[14.4.1.13,7.110,14]tricosa-3(23),4,6,10(22),11,13-hexaene-2,8,8-trione] | +++ (+++ is >600%) | < 1000 nM |  | 
13 | Cc1cccc(C)c1-c1cc2nc(n1)NS(=O)(=O)c1cccc(c1)C(=O)N1CCN(Cc3ccccc3)CC(O2)C1CC(C)C (single isomer, unassigned) [Compound 90, 18-Benzyl-12-(2,6-dimethylphenyl)-21-(2-methylpropyl)-15-oxa-8λ^6-thia-1,9,11,18,22-pentaazatetracyclo[14.4.1.13,7.110,14]tricosa-3(23),4,6,10(22),11,13-hexaene-2,8,8-trione] | +++ (+++ is >600%) | < 1000 nM |  | 
14 | Cc1cccc(C)c1-c1cc2nc(n1)NS(=O)(=O)c1cccc(c1)C(=O)N1CCNCC(O2)C1CC(C)C (single isomer, unassigned) [Compound 91, 12-(2,6-Dimethylphenyl)-21-(2-methylpropyl)-15-oxa-8λ^6-thia-1,9,11,18,22-pentaazatetracyclo[14.4.1.13,7.110,14]tricosa-3(23),4,6,10(22),11,13-hexaene-2,8,8-trione] | +++ (+++ is >600%) | 1000 to 3000 nM |  | 
15 | Cc1cccc(C)c1-c1cc2nc(n1)NS(=O)(=O)c1cccc(c1)C(=O)N1CCN(CCC(C)(C)C)CC(O2)C1CC(C)C (single isomer, unassigned) [Compound 92, 18-(3,3-Dimethylbutyl)-12-(2,6-dimethylphenyl)-21-(2-methylpropyl)-15-oxa-8λ^6-thia-1,9,11,18,22-pentaazatetracyclo[14.4.1.13,7.110,14]tricosa-3(23),4,6,10(22),11,13-hexaene-2,8,8-trione] | +++ (+++ is >600%) | < 1000 nM |  | 
16 | Cc1cccc(C)c1-c1cc2nc(n1)NS(=O)(=O)c1cccc(c1)C(=O)N1CCN(Cc3ccccc3)CC(O2)C1CC(C)C (single isomer, unassigned) [Compound 94, 18-Benzyl-12-(2,6-dimethylphenyl)-21-(2-methylpropyl)-15-oxa-8λ^6-thia-1,9,11,18,22-pentaazatetracyclo[14.4.1.13,7.110,14]tricosa-3(23),4,6,10(22),11,13-hexaene-2,8,8-trione] | +++ (+++ is >600%) | < 1000 nM |  | 
17 | Cc1cccc(C)c1-c1cc2nc(n1)NS(=O)(=O)c1cccc(c1)C(=O)N1CCN(C(=O)OCc3ccccc3)C[C@H](O2)[C@H]1C (single isomer, unassigned) [Compound 112] | +++ (+++ is >600%) | < 1000 nM |  | 
18 | Cc1cccc(C)c1-c1cc2nc(n1)NS(=O)(=O)c1cccc(c1)C(=O)N1CCN(C(=O)OCc3ccccc3)C[C@@H](O2)[C@H]1C (single isomer, unassigned) [Compound 113] | + (+ is <30%) | 3000 to 30000 nM |  | 
19 | Cc1cccc(C)c1-c1cc2nc(n1)NS(=O)(=O)c1cccc(c1)C(=O)N1Cc3cccnc3[C@H](C1)O2 (single isomer, unassigned) [Compound 196, 12-(2,6-Dimethylphenyl)-15-oxa-8λ^6-thia-1,9,11,18,25-pentaazapentacyclo[14.7.1.13,7.110,14.017,22]hexacosa-3,5,7(26),10(25),11,13,17,19,21-nonaene-2,8,8-trione] |  |  | + (+ is <300%) | 
20 | Cc1cccc(C)c1-c1cc2nc(n1)NS(=O)(=O)c1cccc(c1)C(=O)N1CC3CCCN(C)C3[C@H](C1)O2 (single isomer, unassigned) [Compound 199, 12-(2,6-dimethylphenyl)-18-methyl-15-oxa-8λ^6-thia-1,9,11,18,25-pentaazapentacyclo[14.7.1.13,7.110,14.017,22]hexacosa-3,5,7(26),10(25),11,13-hexaene-2,8,8-trione] |  |  | +++ (+++ is >60%) | < 1000 nM
